Experiments:
[1] = test system: Tyrosine-protein kinase ABL1 (Homo sapiens), P00519 [F317I]; conditions: Compound concentration 1000.0 nM
[2] = test system: Tyrosine-protein kinase ABL1 (Homo sapiens), P00519 [T315I]; conditions: Compound concentration 1000.0 nM
[3] = molecular target: Tyrosine-protein kinase ABL2 (Homo sapiens) (UniProt P42684); conditions: Compound concentration 1000.0 nM
[4] = molecular target: Activin receptor type-2B (Homo sapiens) (UniProt Q13705); conditions: Compound concentration 1000.0 nM
[5] = molecular target: 5'-AMP-activated protein kinase catalytic subunit alpha-1 (Homo sapiens) (UniProt Q13131); conditions: Compound concentration 1000.0 nM
[6] = molecular target: Mitogen-activated protein kinase kinase kinase 5 (Homo sapiens) (UniProt Q99683); conditions: Compound concentration 1000.0 nM
[7] = molecular target: Calcium/calmodulin-dependent protein kinase type II subunit alpha (Homo sapiens) (UniProt Q9UQM7); conditions: Compound concentration 1000.0 nM
[8] = molecular target: Death-associated protein kinase 1 (Homo sapiens) (UniProt P53355); conditions: Compound concentration 1000.0 nM
[9] = test system: Epidermal growth factor receptor (Homo sapiens), P00533 [UNDEFINED MUTATION]; conditions: Compound concentration 1000.0 nM
[10] = molecular target: Ephrin type-A receptor 6 (Homo sapiens) (UniProt Q9UF33); conditions: Compound concentration 1000.0 nM
[11] = molecular target: Ephrin type-A receptor 7 (Homo sapiens) (UniProt Q15375); conditions: Compound concentration 1000.0 nM
[12] = molecular target: Ephrin type-A receptor 8 (Homo sapiens) (UniProt P29322); conditions: Compound concentration 1000.0 nM
[13] = molecular target: Receptor tyrosine-protein kinase erbB-2 (Homo sapiens) (UniProt P04626); conditions: Compound concentration 1000.0 nM
[14] = molecular target: Mitogen-activated protein kinase 4 (Homo sapiens) (UniProt P31152); conditions: Compound concentration 1000.0 nM
[15] = molecular target: Serine/threonine-protein kinase/endoribonuclease IRE1 (Homo sapiens) (UniProt O75460); conditions: Compound concentration 1000.0 nM
[16] = molecular target: Fibroblast growth factor receptor 4 (Homo sapiens) (UniProt P22455); conditions: Compound concentration 1000.0 nM
[17] = molecular target: Receptor-type tyrosine-protein kinase FLT3 (Homo sapiens) (UniProt P36888); conditions: Compound concentration 1000.0 nM
[18] = molecular target: Cyclin-G-associated kinase (Homo sapiens) (UniProt O14976); conditions: Compound concentration 1000.0 nM
[19] = molecular target: Serine/threonine-protein kinase haspin (Homo sapiens) (UniProt Q8TF76); conditions: Compound concentration 1000.0 nM
[20] = molecular target: Homeodomain-interacting protein kinase 4 (Homo sapiens) (UniProt Q8NE63); conditions: Compound concentration 1000.0 nM
[21] = molecular target: Interleukin-1 receptor-associated kinase 4 (Homo sapiens) (UniProt Q9NWZ3); conditions: Compound concentration 1000.0 nM
[22] = molecular target: Tyrosine-protein kinase JAK2 (Homo sapiens) (UniProt O60674); conditions: Compound concentration 1000.0 nM
[23] = test system: Hepatocyte growth factor receptor (Homo sapiens), P08581 [M1250T]; conditions: Compound concentration 1000.0 nM
[24] = molecular target: Serine/threonine-protein kinase 4 (Homo sapiens) (UniProt Q13043); conditions: Compound concentration 1000.0 nM
[25] = molecular target: Serine/threonine-protein kinase PAK 2 (Homo sapiens) (UniProt Q13177); conditions: Compound concentration 1000.0 nM
[26] = molecular target: 3-phosphoinositide-dependent protein kinase 1 (Homo sapiens) (UniProt O15530); conditions: Compound concentration 1000.0 nM
[27] = molecular target: Serine/threonine-protein kinase D1 (Homo sapiens) (UniProt Q15139); conditions: Compound concentration 1000.0 nM
[28] = molecular target: cGMP-dependent protein kinase 1 (Homo sapiens) (UniProt Q13976); conditions: Compound concentration 1000.0 nM
[29] = molecular target: RAF proto-oncogene serine/threonine-protein kinase (Homo sapiens) (UniProt P04049); conditions: Compound concentration 1000.0 nM
[30] = test system: Proto-oncogene tyrosine-protein kinase receptor Ret (Homo sapiens), P07949 [M918T]; conditions: Compound concentration 1000.0 nM
[31] = molecular target: Ribosomal protein S6 kinase alpha-3 (Homo sapiens) (UniProt P51812); conditions: Compound concentration 1000.0 nM
[32] = molecular target: Serine/threonine-protein kinase SIK2 (Homo sapiens) (UniProt Q9H0K1); conditions: Compound concentration 1000.0 nM
[33] = molecular target: STE20-like serine/threonine-protein kinase (Homo sapiens) (UniProt Q9H2G2); conditions: Compound concentration 1000.0 nM
[34] = molecular target: Serine/threonine-protein kinase 36 (Homo sapiens) (UniProt Q9NRP7); conditions: Compound concentration 1000.0 nM
[35] = molecular target: STE20/SPS1-related proline-alanine-rich protein kinase (Homo sapiens) (UniProt Q9UEW8); conditions: Compound concentration 1000.0 nM
[36] = molecular target: TRAF2 and NCK-interacting protein kinase (Homo sapiens) (UniProt Q9UKE5); conditions: Compound concentration 1000.0 nM
[37] = molecular target: BDNF/NT-3 growth factors receptor (Homo sapiens) (UniProt Q16620); conditions: Compound concentration 1000.0 nM
[38] = molecular target: Transient receptor potential cation channel subfamily M member 6 (Homo sapiens) (UniProt Q9BX84); conditions: Compound concentration 1000.0 nM
[39] = molecular target: Serine/threonine-protein kinase WNK3 (Homo sapiens) (UniProt Q9BYP7); conditions: Compound concentration 1000.0 nM
[40] = molecular target: Serine/threonine-protein kinase 25 (Homo sapiens) (UniProt O00506); conditions: Compound concentration 1000.0 nM
[41] = molecular target: 5-hydroxytryptamine receptor 1B (Homo sapiens) (UniProt P28222); conditions: Compound concentration 10.0 uM
[42] = molecular target: 5-hydroxytryptamine receptor 2A (Homo sapiens, UniProt P28223); conditions: Compound concentration 10.0 uM
[43] = molecular target: Alpha-2B adrenergic receptor (Homo sapiens) (UniProt P18089); conditions: Compound concentration 10.0 uM
[44] = molecular target: Muscarinic acetylcholine receptor M2 (Homo sapiens) (UniProt P08172); conditions: Compound concentration 10.0 uM
[45] = molecular target: Beta-3 adrenergic receptor (Homo sapiens, UniProt P13945); conditions: Compound concentration 10.0 uM
Chain of Beta-3 adrenergic receptor (P13945 whole entry, looked up): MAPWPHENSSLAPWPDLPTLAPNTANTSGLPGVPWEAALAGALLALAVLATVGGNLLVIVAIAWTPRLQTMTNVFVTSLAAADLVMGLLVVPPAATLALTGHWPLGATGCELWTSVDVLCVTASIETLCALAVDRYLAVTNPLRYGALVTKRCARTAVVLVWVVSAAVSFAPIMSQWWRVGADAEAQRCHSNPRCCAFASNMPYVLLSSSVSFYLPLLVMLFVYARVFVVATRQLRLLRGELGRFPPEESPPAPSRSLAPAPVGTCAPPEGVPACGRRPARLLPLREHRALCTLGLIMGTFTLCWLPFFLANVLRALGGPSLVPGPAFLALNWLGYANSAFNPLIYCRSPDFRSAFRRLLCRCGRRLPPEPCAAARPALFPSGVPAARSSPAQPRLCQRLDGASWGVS

Chain of 5'-AMP-activated protein kinase catalytic subunit alpha-1 (Homo sapiens) (Q13131 whole entry, looked up): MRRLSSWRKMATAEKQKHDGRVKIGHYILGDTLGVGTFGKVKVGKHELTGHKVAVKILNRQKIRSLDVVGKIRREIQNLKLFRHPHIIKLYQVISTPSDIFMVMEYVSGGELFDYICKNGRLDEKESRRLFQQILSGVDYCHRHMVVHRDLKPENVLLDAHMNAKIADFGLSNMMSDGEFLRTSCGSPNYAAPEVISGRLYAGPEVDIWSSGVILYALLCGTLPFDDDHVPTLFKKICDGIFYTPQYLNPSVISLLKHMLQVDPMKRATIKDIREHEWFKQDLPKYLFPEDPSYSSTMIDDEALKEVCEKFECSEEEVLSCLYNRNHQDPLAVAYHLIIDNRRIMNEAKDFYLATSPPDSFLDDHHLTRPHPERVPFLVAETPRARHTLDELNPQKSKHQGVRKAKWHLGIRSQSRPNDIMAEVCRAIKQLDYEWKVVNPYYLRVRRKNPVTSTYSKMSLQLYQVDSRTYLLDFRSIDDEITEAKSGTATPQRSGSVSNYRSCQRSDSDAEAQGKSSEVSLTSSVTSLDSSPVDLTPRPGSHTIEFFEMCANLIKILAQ
Chain of Activin receptor type-2B (Homo sapiens) (Q13705 whole entry): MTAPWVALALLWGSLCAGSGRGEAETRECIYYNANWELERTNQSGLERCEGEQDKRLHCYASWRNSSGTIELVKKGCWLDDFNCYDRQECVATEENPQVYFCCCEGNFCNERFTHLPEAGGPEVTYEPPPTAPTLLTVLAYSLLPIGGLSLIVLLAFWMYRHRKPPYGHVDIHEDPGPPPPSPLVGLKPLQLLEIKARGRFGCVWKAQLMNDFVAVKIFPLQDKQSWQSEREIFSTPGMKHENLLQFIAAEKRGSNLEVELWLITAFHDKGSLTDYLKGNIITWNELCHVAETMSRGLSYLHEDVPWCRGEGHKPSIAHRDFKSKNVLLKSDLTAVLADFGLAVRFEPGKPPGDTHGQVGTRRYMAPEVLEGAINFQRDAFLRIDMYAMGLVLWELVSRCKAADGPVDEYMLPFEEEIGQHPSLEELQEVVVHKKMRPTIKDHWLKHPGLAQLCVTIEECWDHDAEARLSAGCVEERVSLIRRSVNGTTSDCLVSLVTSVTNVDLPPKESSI
Chain of Proto-oncogene tyrosine-protein kinase receptor Ret (Homo sapiens), P07949 [M918T] (P07949 whole entry M918T): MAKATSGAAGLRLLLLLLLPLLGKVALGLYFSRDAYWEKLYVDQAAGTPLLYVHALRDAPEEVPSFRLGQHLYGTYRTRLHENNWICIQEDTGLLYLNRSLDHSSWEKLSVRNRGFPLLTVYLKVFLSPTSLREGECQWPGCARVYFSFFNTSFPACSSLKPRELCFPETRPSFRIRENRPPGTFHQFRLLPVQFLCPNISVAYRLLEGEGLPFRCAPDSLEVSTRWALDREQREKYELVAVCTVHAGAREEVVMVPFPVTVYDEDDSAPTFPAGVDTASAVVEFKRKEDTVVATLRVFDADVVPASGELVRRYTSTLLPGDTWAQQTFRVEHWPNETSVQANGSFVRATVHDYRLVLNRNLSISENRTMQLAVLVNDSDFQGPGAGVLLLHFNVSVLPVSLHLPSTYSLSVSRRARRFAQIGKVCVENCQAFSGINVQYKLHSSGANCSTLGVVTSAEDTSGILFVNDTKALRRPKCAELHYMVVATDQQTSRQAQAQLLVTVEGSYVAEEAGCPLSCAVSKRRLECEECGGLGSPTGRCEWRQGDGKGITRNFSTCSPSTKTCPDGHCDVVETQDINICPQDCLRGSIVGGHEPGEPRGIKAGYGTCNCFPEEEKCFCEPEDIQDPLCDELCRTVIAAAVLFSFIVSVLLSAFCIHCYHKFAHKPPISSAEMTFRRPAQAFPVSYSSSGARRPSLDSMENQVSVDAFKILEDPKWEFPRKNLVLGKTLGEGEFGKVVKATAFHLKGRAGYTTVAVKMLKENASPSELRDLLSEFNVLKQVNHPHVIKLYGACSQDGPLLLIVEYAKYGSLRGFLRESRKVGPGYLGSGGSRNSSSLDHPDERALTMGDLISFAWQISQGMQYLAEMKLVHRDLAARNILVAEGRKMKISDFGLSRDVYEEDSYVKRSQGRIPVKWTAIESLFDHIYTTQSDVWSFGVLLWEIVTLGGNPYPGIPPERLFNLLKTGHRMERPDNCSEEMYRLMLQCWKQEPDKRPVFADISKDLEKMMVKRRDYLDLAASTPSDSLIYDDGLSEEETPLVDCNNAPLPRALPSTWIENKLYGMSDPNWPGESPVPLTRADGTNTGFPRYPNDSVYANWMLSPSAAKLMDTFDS
Chain of Serine/threonine-protein kinase 4 (Homo sapiens) (Q13043 whole entry): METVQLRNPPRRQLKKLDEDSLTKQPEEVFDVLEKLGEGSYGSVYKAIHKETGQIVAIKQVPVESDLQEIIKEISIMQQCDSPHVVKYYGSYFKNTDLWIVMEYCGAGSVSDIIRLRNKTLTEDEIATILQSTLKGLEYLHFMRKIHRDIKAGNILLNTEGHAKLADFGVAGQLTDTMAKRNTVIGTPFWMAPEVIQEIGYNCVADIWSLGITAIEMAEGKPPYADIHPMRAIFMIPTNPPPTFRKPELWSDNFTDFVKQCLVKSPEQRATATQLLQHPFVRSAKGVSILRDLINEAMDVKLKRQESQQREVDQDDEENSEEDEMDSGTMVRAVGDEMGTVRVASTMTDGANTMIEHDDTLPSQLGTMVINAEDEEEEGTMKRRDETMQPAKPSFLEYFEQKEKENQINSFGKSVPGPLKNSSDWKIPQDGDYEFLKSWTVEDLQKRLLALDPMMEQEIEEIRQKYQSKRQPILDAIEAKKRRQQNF
Chain of Receptor tyrosine-protein kinase erbB-2 (Homo sapiens) (P04626 whole entry): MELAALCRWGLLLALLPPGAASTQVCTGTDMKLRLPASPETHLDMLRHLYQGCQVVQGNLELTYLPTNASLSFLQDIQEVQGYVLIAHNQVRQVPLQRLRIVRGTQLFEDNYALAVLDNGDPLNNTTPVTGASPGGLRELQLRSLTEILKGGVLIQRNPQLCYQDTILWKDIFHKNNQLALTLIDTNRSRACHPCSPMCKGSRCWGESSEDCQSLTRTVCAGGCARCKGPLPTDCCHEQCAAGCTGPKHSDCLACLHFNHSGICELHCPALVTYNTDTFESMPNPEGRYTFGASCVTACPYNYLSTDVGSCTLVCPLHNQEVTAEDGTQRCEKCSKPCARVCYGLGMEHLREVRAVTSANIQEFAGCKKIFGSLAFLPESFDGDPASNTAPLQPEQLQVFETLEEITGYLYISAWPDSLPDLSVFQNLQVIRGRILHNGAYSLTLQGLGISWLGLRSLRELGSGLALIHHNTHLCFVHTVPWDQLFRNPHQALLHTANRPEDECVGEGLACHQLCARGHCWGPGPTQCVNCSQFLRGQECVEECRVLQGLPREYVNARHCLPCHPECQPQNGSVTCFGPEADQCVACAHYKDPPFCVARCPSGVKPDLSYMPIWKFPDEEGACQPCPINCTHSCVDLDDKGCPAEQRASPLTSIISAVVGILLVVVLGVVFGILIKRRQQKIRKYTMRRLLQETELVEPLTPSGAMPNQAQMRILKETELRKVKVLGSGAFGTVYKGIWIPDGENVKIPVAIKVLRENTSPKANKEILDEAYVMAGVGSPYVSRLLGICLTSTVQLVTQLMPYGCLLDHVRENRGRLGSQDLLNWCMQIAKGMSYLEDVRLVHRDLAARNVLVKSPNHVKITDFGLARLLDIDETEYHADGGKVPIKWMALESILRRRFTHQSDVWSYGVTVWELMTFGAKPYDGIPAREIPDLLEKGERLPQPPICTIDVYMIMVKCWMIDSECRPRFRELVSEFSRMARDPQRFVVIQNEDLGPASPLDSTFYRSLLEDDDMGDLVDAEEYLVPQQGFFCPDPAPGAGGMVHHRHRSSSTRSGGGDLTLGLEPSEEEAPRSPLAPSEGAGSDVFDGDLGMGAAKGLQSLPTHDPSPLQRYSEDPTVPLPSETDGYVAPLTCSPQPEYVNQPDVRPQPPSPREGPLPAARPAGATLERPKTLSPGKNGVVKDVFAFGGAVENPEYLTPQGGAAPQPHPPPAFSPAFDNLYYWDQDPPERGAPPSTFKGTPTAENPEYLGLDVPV
Chain of Ribosomal protein S6 kinase alpha-3 (Homo sapiens) (P51812 whole entry): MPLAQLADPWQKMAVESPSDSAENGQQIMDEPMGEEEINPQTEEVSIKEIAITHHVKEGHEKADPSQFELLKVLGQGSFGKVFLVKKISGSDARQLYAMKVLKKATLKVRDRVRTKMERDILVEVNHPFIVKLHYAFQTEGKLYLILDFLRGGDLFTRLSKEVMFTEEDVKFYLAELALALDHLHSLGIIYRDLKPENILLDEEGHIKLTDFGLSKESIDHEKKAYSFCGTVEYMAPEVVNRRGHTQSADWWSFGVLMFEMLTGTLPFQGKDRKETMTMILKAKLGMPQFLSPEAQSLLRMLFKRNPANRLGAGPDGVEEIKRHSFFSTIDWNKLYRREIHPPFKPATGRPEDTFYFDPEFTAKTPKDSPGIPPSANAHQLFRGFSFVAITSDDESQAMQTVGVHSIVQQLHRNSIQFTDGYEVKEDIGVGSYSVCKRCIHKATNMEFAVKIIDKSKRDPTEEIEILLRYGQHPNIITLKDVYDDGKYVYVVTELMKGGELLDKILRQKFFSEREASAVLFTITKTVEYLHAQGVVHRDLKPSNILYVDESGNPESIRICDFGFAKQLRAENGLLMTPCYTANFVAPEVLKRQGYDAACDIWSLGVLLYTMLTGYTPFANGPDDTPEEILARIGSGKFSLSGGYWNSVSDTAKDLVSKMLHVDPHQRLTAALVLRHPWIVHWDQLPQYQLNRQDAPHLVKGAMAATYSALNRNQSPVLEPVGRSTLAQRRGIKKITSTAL

## CC(=O)Nc1c(C(C)=O)c(=O)n(C)c2nc(-c3ccc(Cl)cc3Cl)c(-c3ccc(Cl)cc3)cc12 [NAPHTHYRIDINONE]
[1]
  residual activity: 77%
[2]
  residual activity: 89%
[3]
  residual activity: 100%
[4]
  residual activity: 100%
[5]
  residual activity: 100%
[6]
  residual activity: 100%
[7]
  residual activity: 100%
[8]
  residual activity: 100%
[9]
  residual activity: 100%
[10]
  residual activity: 100%
[11]
  residual activity: 100%
[12]
  residual activity: 100%
[13]
  residual activity: 100%
[14]
  residual activity: 79%
[15]
  residual activity: 100%
[16]
  residual activity: 100%
[17]
  residual activity: 100%
[18]
  residual activity: 100%
[19]
  residual activity: 100%
[20]
  residual activity: 89%
[21]
  residual activity: 100%
[22]
  residual activity: 100%
[23]
  residual activity: 100%
[24]
  residual activity: 100%
[25]
  residual activity: 100%
[26]
  residual activity: 100%
[27]
  residual activity: 100%
[28]
  residual activity: 100%
[29]
  residual activity: 100%
[30]
  residual activity: 100%
[31]
  residual activity: 90%
[32]
  residual activity: 100%
[33]
  residual activity: 100%
[34]
  residual activity: 92%
[35]
  residual activity: 100%
[36]
  residual activity: 100%
[37]
  residual activity: 100%
[38]
  residual activity: 100%
[39]
  residual activity: 100%
[40]
  residual activity: 100%
[41]
  inhibition: 43.6%
[42]
  inhibition: 21.8%
[43]
  inhibition: 16.6%
[44]
  inhibition: -7.96%
[45]
  inhibition: 37.6%

## CC(=O)c1c(NS(C)(=O)=O)c2cc(-c3ccc(Cl)cc3)c(-c3ccc(Cl)cc3Cl)nc2n(C)c1=O [MRL-CB1-NC]
[1]
  residual activity: 76%
[2]
  residual activity: 86%
[3]
  residual activity: 100%
[4]
  residual activity: 100%
[5]
  residual activity: 100%
[6]
  residual activity: 85%
[7]
  residual activity: 100%
[8]
  residual activity: 80%
[9]
  residual activity: 100%
[10]
  residual activity: 93%
[11]
  residual activity: 100%
[12]
  residual activity: 97%
[13]
  residual activity: 100%
[14]
  residual activity: 100%
[15]
  residual activity: 77%
[16]
  residual activity: 100%
[17]
  residual activity: 96%
[18]
  residual activity: 100%
[19]
  residual activity: 92%
[20]
  residual activity: 93%
[21]
  residual activity: 95%
[22]
  residual activity: 97%
[23]
  residual activity: 90%
[24]
  residual activity: 100%
[25]
  residual activity: 100%
[26]
  residual activity: 100%
[27]
  residual activity: 100%
[28]
  residual activity: 75%
[29]
  residual activity: 100%
[30]
  residual activity: 100%
[31]
  residual activity: 75%
[32]
  residual activity: 100%
[33]
  residual activity: 100%
[34]
  residual activity: 100%
[35]
  residual activity: 92%
[36]
  residual activity: 93%
[37]
  residual activity: 94%
[38]
  residual activity: 100%
[39]
  residual activity: 80%
[40]
  residual activity: 100%
[41]
  inhibition: -2.36%
[42]
  inhibition: 78.8%
[43]
  inhibition: 67.2%
[44]
  inhibition: -4.45%
[45]
  inhibition: 69.3%

— ChEMBL document CHEMBL4507287, “Data for DCP probe MRL-650” (2021)
